Results as given in ChEMBL document CHEMBL5226307, “Advances in Cyclic Nucleotide Phosphodiesterase-Targeted PET Imaging and Drug Discovery” (J Med Chem, 2021).

Assays:
[1] = Drug uptake in pig myocardium assessed as standardized uptake value; type: ADME, tissue-based, Sus scrofa; conditions: in vivo
[2] = target: T1, cAMP and cAMP-inhibited cGMP 3',5'-cyclic phosphodiesterase 10A (Homo sapiens, UniProt Q9Y233); assay: Inhibition of PDE10A (unknown origin)
[3] = Metabolic stability in baboon brain assessed as parent compound remaining incubated for 90 mins; type: ADME, tissue-based, Papio; conditions: read-out: Stability
Phosphodiesterase 7 = Phosphodiesterase 7 (Homo sapiens, UniProt Q13946+Q9NP56); assay: Inhibition of PDE7 (unknown origin); type: protein assay
[4] = Stability in mouse brain measured at 15 mins; type: ADME, tissue-based; conditions: read-out: Stability
[5] = target: T2, cGMP-specific 3',5'-cyclic phosphodiesterase (Homo sapiens, UniProt O76074); assay: Inhibition of PDE5A (unknown origin)
[6] = target: T2, cGMP-specific 3',5'-cyclic phosphodiesterase; assay: Binding affinity to PDE5 (unknown origin); conditions: tested as the 18F-labelled form
[7] = target: T2, cGMP-specific 3',5'-cyclic phosphodiesterase; assay: Inhibition of PDE5 (unknown origin)
[8] = Drug uptake in NMRI mouse lung assessed as maximum standardized uptake value incubated for 30 mins; type: ADME, tissue-based; conditions: in vivo, 0.5 h
[9] = Drug uptake in NMRI mouse lung incubated for 30 mins relative to control; type: ADME, tissue-based; conditions: in vivo, 0.5 h
[10] = Toxicity in mouse assessed as body weight loss at 10 mg/kg/day, po; type: organism-based; conditions: in vivo
[11] = target: T1, cAMP and cAMP-inhibited cGMP 3',5'-cyclic phosphodiesterase 10A; assay: Inhibition of human PDE10
[12] = target: Dual 3',5'-cyclic-AMP and -GMP phosphodiesterase 11A (Homo sapiens, UniProt Q9HCR9); assay: Inhibition of human PDE11
Dual 3',5'-cyclic-AMP and -GMP phosphodiesterase 11A, sequence (Q9HCR9 whole entry): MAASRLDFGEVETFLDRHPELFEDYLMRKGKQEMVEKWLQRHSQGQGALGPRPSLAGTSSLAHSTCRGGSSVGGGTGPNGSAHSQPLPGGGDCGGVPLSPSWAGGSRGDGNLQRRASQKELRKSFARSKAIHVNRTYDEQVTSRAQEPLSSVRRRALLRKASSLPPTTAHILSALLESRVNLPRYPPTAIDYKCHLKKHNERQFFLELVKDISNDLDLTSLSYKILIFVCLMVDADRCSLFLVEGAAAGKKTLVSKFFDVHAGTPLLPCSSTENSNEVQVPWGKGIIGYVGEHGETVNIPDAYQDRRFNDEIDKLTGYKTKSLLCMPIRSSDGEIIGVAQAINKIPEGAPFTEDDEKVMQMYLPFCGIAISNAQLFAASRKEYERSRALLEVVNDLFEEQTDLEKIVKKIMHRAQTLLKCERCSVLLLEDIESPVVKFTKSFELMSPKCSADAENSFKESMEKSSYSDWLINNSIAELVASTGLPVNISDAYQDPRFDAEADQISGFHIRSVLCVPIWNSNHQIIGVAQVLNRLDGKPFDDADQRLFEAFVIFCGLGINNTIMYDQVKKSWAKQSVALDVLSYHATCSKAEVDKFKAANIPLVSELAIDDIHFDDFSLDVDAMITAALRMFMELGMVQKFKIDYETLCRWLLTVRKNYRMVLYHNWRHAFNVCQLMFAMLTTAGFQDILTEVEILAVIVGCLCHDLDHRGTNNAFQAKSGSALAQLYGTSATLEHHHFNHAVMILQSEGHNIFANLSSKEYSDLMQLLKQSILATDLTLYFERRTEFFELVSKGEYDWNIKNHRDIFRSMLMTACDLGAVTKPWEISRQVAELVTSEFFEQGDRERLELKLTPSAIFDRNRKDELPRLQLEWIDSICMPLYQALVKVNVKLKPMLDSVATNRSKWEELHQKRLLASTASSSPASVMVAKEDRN

Phosphodiesterase 4 = Phosphodiesterase 4 (Homo sapiens, UniProt P27815+Q08499+Q07343+Q08493); assay: Binding affinity to human PDE4 assessed as dissociation constant; type: protein assay
[13] = target: T3, cAMP and cAMP-inhibited cGMP 3',5'-cyclic phosphodiesterase 10A (Rattus norvegicus, UniProt Q9QYJ6)
T3 sequence (Q9QYJ6 whole entry): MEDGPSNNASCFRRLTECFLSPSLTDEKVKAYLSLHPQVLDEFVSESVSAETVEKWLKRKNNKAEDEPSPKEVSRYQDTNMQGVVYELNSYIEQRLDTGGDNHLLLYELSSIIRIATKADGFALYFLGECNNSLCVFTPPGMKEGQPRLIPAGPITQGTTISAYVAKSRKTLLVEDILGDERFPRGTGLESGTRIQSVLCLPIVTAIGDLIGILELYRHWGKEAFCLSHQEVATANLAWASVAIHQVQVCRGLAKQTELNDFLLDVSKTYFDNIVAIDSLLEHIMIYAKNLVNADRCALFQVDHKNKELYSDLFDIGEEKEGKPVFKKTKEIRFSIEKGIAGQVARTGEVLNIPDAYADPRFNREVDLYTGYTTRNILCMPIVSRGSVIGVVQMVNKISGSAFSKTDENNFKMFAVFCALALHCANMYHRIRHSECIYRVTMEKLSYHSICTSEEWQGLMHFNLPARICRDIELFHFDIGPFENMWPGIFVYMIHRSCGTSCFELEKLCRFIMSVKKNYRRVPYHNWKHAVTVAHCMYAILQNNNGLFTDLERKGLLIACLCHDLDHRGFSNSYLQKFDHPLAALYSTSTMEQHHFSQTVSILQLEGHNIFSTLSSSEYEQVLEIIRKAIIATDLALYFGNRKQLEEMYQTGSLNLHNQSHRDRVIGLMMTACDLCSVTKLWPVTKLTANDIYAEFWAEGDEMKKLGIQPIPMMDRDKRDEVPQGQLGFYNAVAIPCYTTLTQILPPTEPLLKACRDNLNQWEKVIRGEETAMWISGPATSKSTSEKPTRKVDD

[14] = Metabolic stability in cynomolgus monkey assessed as parent compound remaining incubated for 30 mins in presence of NADPH; type: ADME, Macaca fascicularis; conditions: read-out: Stability
[15] = target: T1, cAMP and cAMP-inhibited cGMP 3',5'-cyclic phosphodiesterase 10A; assay: Binding affinity to PDE10A (unknown origin) assessed as dissociation constant
[16] = Drug uptake in human globus pallidus assessed as standardized uptake value; type: ADME, tissue-based
[17] = Drug uptake in human caudate nucleus assessed as standardized uptake value; type: ADME, tissue-based
[18] = Stability in human plasma assessed as parent compound remaining after 120 mins; type: ADME, cell-free; conditions: read-out: Stability
[19] = Drug uptake in human putamen nucleus assessed as standardized uptake value; type: ADME, tissue-based
[20] = Metabolic stability in non human primates plasma assessed as parent compound remaining incubated for 70 mins by HPLC analysis; type: ADME, cell-free; conditions: read-out: Stability
[21] = target: T1, cAMP and cAMP-inhibited cGMP 3',5'-cyclic phosphodiesterase 10A; assay: Inhibition of human PDE10A
[22] = target: T4, cGMP-dependent 3',5'-cyclic phosphodiesterase (Homo sapiens, UniProt O00408); assay: Inhibition of human PDE2A
T4 sequence (O00408 whole entry): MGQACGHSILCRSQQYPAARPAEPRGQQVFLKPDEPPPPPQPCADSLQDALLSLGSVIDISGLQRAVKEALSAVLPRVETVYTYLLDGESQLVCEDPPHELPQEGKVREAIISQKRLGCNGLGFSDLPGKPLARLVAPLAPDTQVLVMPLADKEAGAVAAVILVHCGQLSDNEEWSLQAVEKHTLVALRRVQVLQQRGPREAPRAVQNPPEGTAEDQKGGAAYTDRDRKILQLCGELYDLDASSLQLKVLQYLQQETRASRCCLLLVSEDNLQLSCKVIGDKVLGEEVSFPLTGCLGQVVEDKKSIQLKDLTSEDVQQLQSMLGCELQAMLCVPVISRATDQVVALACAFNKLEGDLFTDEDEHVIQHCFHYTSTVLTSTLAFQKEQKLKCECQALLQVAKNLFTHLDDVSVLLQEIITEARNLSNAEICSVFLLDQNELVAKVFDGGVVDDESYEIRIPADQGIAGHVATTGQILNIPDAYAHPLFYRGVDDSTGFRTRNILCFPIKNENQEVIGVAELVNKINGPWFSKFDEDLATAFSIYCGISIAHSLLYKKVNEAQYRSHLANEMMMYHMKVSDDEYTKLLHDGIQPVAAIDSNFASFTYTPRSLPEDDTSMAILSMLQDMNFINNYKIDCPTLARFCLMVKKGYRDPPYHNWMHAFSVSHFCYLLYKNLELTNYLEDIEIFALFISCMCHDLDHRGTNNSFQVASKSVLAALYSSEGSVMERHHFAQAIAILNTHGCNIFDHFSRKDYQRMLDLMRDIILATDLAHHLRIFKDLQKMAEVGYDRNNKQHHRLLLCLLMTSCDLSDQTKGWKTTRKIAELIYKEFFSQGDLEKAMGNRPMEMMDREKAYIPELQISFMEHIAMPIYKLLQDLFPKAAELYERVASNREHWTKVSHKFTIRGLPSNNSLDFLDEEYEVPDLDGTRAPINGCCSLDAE

[23] = target: 3',5'-cyclic-AMP phosphodiesterase 4A (Homo sapiens, UniProt P27815); assay: Inhibition of human PDE4A
3',5'-cyclic-AMP phosphodiesterase 4A, sequence (P27815 whole entry): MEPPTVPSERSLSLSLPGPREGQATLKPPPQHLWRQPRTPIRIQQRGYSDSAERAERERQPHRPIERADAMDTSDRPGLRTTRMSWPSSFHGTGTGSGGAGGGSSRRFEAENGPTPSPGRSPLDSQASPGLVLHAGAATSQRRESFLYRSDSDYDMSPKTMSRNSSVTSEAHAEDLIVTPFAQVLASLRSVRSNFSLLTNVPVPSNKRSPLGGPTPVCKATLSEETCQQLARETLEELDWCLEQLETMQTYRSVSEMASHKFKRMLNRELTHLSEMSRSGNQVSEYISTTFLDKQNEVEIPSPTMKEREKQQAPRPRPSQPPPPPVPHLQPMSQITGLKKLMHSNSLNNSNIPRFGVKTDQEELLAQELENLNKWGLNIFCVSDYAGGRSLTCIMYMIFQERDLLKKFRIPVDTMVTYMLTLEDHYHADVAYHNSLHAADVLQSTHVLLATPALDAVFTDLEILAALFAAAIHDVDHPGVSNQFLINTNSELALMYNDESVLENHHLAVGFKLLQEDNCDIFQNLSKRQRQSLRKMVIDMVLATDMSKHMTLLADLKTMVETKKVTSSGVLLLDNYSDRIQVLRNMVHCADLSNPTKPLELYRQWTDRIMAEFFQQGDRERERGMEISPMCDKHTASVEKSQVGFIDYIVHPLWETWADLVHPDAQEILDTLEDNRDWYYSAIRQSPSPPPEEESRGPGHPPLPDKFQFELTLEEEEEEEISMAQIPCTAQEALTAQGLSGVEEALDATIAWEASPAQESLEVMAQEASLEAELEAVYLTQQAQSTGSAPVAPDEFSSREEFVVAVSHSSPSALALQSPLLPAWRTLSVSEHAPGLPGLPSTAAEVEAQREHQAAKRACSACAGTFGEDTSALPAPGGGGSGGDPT

[24] = target: T4, cGMP-dependent 3',5'-cyclic phosphodiesterase; assay: Inhibition of human PDE2
[25] = target: Dual specificity calcium/calmodulin-dependent 3',5'-cyclic nucleotide phosphodiesterase 1C (Homo sapiens, UniProt Q14123); assay: Inhibition of human PDE1C
[26] = target: Dual specificity calcium/calmodulin-dependent 3',5'-cyclic nucleotide phosphodiesterase 1B (Homo sapiens, UniProt Q01064); assay: Inhibition of human PDE1B
Dual specificity calcium/calmodulin-dependent 3',5'-cyclic nucleotide phosphodiesterase 1B, sequence (Q01064 whole entry): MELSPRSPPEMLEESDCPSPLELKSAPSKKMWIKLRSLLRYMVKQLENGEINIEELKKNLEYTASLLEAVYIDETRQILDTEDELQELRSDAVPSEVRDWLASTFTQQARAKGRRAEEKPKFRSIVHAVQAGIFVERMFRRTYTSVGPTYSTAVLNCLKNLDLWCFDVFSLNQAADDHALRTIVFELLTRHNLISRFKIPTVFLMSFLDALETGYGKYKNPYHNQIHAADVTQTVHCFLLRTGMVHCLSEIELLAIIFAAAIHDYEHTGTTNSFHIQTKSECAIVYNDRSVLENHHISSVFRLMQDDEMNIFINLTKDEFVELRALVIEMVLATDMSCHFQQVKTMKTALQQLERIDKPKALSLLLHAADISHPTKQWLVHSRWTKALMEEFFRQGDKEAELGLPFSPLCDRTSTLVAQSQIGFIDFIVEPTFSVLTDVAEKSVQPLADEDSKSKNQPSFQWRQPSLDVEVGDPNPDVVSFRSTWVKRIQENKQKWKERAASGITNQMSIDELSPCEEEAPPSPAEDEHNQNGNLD

[27] = target: T2, cGMP-specific 3',5'-cyclic phosphodiesterase; assay: Inhibition of human PDE5
[28] = target: High affinity 3',5'-cyclic-AMP phosphodiesterase 7A (Homo sapiens, UniProt Q13946); assay: Inhibition of human PDE7A1
High affinity 3',5'-cyclic-AMP phosphodiesterase 7A, sequence (Q13946 whole entry): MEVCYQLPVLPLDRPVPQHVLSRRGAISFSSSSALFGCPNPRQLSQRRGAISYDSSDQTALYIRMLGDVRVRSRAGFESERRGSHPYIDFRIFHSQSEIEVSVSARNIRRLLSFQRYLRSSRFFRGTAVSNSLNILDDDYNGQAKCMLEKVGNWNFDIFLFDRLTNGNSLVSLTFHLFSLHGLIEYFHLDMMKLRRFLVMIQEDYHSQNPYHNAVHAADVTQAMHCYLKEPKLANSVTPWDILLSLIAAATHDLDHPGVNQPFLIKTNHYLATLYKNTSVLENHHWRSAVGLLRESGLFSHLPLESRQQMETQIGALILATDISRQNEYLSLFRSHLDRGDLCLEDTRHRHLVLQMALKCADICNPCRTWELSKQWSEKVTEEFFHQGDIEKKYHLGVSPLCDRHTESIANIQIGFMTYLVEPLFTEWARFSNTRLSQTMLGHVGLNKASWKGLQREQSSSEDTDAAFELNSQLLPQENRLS

[29] = Lipophilicity, logD of the compound in Octanol/potassium phosphate buffer at pH 7.4 after 1 hr by HPLC analysis; type: physicochemical
[30] = target: T1, cAMP and cAMP-inhibited cGMP 3',5'-cyclic phosphodiesterase 10A; assay: Binding affinity to full length human PDE10A assessed as dissociation constant
[31] = target: T1, cAMP and cAMP-inhibited cGMP 3',5'-cyclic phosphodiesterase 10A; assay: Binding affinity to full length human PDE10A assessed as dissociation constant using [3H]-cAMP as substrate
Phosphodiesterase 1 = Phosphodiesterase 1 (Homo sapiens, UniProt P54750+Q01064+Q14123); assay: Inhibition of PDE1 (unknown origin); type: protein assay
[32] = Drug uptake in mouse striatum; type: ADME, tissue-based; conditions: in vivo
[33] = Drug uptake in mouse striatum assessed as standardized uptake value; type: ADME, tissue-based; conditions: in vivo
[34] = Metabolic stability in mouse plasma assessed as parent compound remaining incubated for 30 mins by HPLC analysis; type: ADME, cell-free; conditions: read-out: Stability
[35] = Drug uptake in mouse brown adipose tissue; type: ADME, tissue-based; conditions: in vivo
[36] = Metabolic stability in mouse brain assessed as parent compound remaining incubated for 30 mins by HPLC analysis; type: ADME, tissue-based; conditions: read-out: Stability

T1 sequence (Q9Y233 whole entry): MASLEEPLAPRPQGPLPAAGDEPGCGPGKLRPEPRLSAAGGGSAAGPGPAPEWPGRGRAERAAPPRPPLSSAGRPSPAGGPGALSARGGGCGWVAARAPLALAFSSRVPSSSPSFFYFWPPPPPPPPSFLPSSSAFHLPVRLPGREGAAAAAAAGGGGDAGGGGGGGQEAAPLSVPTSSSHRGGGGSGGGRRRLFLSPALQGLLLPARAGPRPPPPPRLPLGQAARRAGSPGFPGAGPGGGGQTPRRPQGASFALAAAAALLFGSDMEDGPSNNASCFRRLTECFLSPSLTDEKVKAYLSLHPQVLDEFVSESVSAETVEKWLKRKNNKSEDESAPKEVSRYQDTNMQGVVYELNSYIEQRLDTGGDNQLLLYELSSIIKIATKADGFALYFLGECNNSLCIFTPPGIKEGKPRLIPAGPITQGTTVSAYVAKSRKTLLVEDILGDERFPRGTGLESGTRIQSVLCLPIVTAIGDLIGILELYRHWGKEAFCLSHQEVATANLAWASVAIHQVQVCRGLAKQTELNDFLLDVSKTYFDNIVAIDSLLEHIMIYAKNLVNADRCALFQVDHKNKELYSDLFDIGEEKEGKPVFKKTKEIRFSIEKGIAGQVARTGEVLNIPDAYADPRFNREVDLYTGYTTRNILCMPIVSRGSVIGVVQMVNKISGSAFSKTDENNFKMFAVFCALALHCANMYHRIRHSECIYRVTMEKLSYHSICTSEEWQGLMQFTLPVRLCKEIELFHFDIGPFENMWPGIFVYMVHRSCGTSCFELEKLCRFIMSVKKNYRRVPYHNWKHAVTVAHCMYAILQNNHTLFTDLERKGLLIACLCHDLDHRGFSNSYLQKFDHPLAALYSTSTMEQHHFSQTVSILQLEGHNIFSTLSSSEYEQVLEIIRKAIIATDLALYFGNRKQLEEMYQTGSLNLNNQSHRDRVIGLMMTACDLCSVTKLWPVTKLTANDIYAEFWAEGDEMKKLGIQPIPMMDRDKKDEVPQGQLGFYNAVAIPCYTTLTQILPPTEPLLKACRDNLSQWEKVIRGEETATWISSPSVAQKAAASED

CCCCN1C(=O)[C@H]2Cc3c([nH]c4ccccc34)[C@@H](c3ccc(O[11CH3])cc3)N2C1=O
SUV [1]: 3.8

[11CH3]N(c1cc(N2CC[C@@H](F)C2)nc2cc(-c3cnc4c(n3)CCCC4)nn12)C1CCOCC1
IC50 [2]: 0.06 nM
remaining at 1.5 h [3]: 50%

Cc1cnc(COc2ccc(-c3nn(CC[18F])cc3-c3ccncc3)cc2)c(C)c1
IC50 [2]: 2 nM

O=C1Nc2c(Cl)ccc(OCC[18F])c2C2(CCCCC2)N1
IC50 (Phosphodiesterase 7): 17 nM
remaining at […] [4]: 84%

COc1ccc(CNc2c(CO)cnc3c(N4CC(F)C4)cc(C#N)cc23)cc1Cl
IC50 [5]: 5.92 nM
Bmax [6]: 0.1 nM
IC50 [7]: 1.86 nM

CCCc1nn(C)c2c(=O)[nH]c(-c3cc(S(=O)(=O)N4CCN([11CH3])CC4)ccc3OCC)nc12
SUVmax [8]: 8
Drug uptake [9]: > 86%

Cn1cc(-c2ccncc2)c(-c2ccc(OCc3ccc4ccccc4n3)cc2)n1 [MARDEPODECT]
Activity [10]: 8.61%

COc1cc2nncc(-c3cnc(NC(C)C)c(C)c3)c2cc1O[11CH3]
IC50 [2]: 1.9 nM

CC(C)C(=O)c1c(C(C)C)nn2ccccc12 [IBUDILAST]
IC50 [11]: ≤ 10000 nM
IC50 [12]: ≤ 10000 nM

CCCc1nc(C)c2c(=O)[nH]c(-c3cc(S(=O)(=O)N4CCN(CC[18F])CC4)ccc3OCC)nn12
SUVmax [8]: 8.9

O=C1C[C@H](c2ccc(OCF)c(OC3CCCC3)c2)CN1
Kd (Phosphodiesterase 4): 0.26 nM

CC(=O)N1CCC(c2nccnc2Oc2ccc(C(=O)c3nc4ccccc4[nH]3)cc2)CC1
IC50 [2]: 0.18 nM

[11CH3]n1nnc(COc2ccc(Cl)c3c2C2(CCCCC2)NC(=O)N3)n1
IC50 (Phosphodiesterase 7): 1.7 nM
remaining at […] [4]: 74%

CCc1cc(C#N)cc2c(NCc3ccc(OC)c(Cl)c3)c(COCCF)cnc12
IC50 [5]: 5.92 nM
Bmax [6]: 0.1 nM

Cc1ccc(C)n2nc(CCc3nc(-c4ccccc4)cn3[11CH3])nc12
IC50 [13]: 0.39 nM
remaining at 0.5 h [14]: 27%

Cc1ccc2c(=O)n(-c3ccc4cnn(CC[18F])c4c3)c(CCN3C(=O)c4cccc(OC(C)C)c4C3=O)nc2c1
Kd [15]: 0.029 nM
SUV [16]: 1.5%
SUV [17]: 0.7%
remaining at 2 h [18]: 20%
SUV [19]: 0.7%

[11CH3]n1cc(-c2ccncc2)c(-c2ccc(OCc3ccc4ccccc4n3)cc2)n1
remaining at 1.5 h [3]: 30%
remaining at 1.167 h [20]: 24%

COc1ccc2nnc3c(C)nc(-c4cc(OCCCC[18F])ccc4F)n3c2n1
IC50 [21]: 7.3 nM
IC50 [22]: 913 nM

Cc1ccc([N+](=O)[O-])cc1S(=O)(=O)N(C)C
IC50 [23]: 62000 nM
IC50 [24]: 62000 nM
IC50 [25]: 62000 nM
IC50 [26]: 62000 nM
IC50 [27]: 62000 nM
IC50 [28]: 260 nM

[11CH3]Oc1cn(-c2ccc(C3CCOCC3)cc2F)nc(-c2ccnn2-c2ccccc2)c1=O
IC50 [2]: 0.77 nM

CC([18F])C(=O)N1CCC(c2nccnc2Oc2ccc(C(=O)c3nc4ccccc4[nH]3)cc2)CC1 (stereo not drawn)
IC50 [2]: 0.13 nM

CC(C)Oc1cccc2c1C(=O)N(CCc1nc3ccccc3c(=O)n1-c1ccc(O[11CH3])cc1)C2=O
logD at 1 h [29]: 3.19

[18F]CCn1cc(-c2ccncc2)c(-c2ccc(OCc3ccc4ccccc4n3)cc2)n1
Kd [30]: 6.62 nM
IC50 [2]: 0.5 nM
Kd [31]: 3.17 nM

CC(C)Cn1c(=O)n(C)c(=O)c2c(Nc3ccccc3)n(Cc3ccc(C4CCCN4C)cc3)nc21 (stereo not drawn)
IC50 (Phosphodiesterase 1): 13 nM

CCCCOc1ccc(F)c(-c2nc(C)c3nnc4ccc(OCC[18F])nc4n23)c1
IC50 [21]: > 1000 nM

COc1ccc2nnc3c(C)nc(-c4cc(OCCC[18F])ccc4F)n3c2n1
IC50 [21]: 7.3 nM
IC50 [22]: 11.4 nM

COc1cc(Br)cc2c1nc(C)c1c(C)nc(-c3ccc([18F])nc3)n12
Drug uptake [32]: 130%
SUV [33]: 2.7
remaining at 0.5 h [34]: 64%
Drug uptake [35]: 30%
remaining at 0.5 h [36]: 88%

Cc1ccc2c(=O)n(-c3ccc(OC[18F])cc3)c(CCN3C(=O)c4cccc(OC(C)C)c4C3=O)nc2c1
Kd [15]: 0.097 nM
remaining at 2 h [18]: 20%

CCC(CC)Nc1ncnc2c(OC)c(OC)ccc12
IC50 (Phosphodiesterase 1): 170 nM

CCCCN1C(=O)[C@H]2Cc3c([nH]c4ccccc34)[C@@H](c3ccc(OC)cc3)N2C1=O
SUV [1]: 2.6
